# Data as given in article PMC4058456, “Jacobsen Catalyst as a Cytochrome P450 Biomimetic Model for the Metabolism of Monensin A” (BioMed Research International, 2014).
# Like-named read-outs stand apart in the source and are kept apart here. Marks after values point to notes of the source that are not given here.
# Legend:
# [1] = test system: Escherichia coli ATCC 25922; assay: Antimicrobial bioassay, minimal bactericidal concentration (MTT); type: cell-based
# Protocol: (§1) The bioassays were carried out using the strains Staphylococcus aureus ATCC 25923, Staphylococcus aureus ATCC 43300 (MRSA-methicillin resistant), Staphylococcus epidermidis ATCC 14990, Pseudomonas aeruginosa ATCC 27853, and Escherichia coli ATCC 25922 all acquired from the American Type Culture Collection (ATCC). Approximately 5 × 10^5 microorganisms·mL^−1 were incubated in Muller Hinton broth in 96-well microtiter plates containing the samples to be tested. The compounds (monensin A, metabolite 1, and metabolite 2) were dissolved in dimethylsulfoxide (DMSO) and diluted into the medium to give 100, 50, 25, 12.5, 6.3, 3.1, 1.6, 0.8, 0.4, 0.2, 0.1, and 0.05 μg·mL^−1, as their final concentrations. The plates were incubated at 37°C and the bioassays were performed in triplicate. The cell death was determined by a MTT colorimetric method which was described by Andrews and Furtado et al.. The DMSO solution and chloramphenicol were used as controls of the experiment.
# [2] = test system: Pseudomonas aeruginosa ATCC 27853; assay: as above; type: cell-based
# Protocol: as §1
# [3] = test system: Staphylococcus aureus ATCC 25923; assay: as above; type: cell-based; details: for MBC: Staphylococcus aureus
# Protocol: as §1
# [4] = test system: Staphylococcus aureus ATCC 43300 (MRSA-methicillin resistant); assay: as above; type: cell-based; details: for MBC: Staphylococcus aureus, read-out: Minimal bactericidal concentration
# Protocol: as §1
# [5] = test system: Staphylococcus epidermidis ATCC 14990; assay: as above; type: cell-based
# Protocol: as §1
# rat liver mitochondria [6] = assay: Mitochondrial respiration (oxygen consumption, Clark-type electrode); details: 1 μM
# Protocol: (§2) Monensin A was diluted in ethanol to concentrations 0.01, 0.1, and 1 μM. All assays were performed in three replicates. Rat liver mitochondria were isolated by standard differential centrifugation according to Pereira et al. and the mitochondrial protein content was determined by the biuret method.
# Mitochondrial respiration was monitored polarographically with an oxygraph (Hansatech) equipped with a Clark-type oxygen electrode. The mitochondria (1.0 mg protein) were incubated at 30°C in 1 mL of the respiratory medium containing 125 mM sucrose, 65 mM KCl, 10 mM HEPES-KOH, 0.5 mM EGTA, and 10 mM K2HPO4; pH 7.2. 5 mM glutamate and malate were used as the oxidizable substrates for complex I; and mitochondrial oxidative phosphorylation (state 3) was initiated using 400 nmol ADP.
# rat liver mitochondria [7] = assay: Mitochondrial membrane potential (safranin-o fluorescence); details: 1 μM
# Protocol: as §2
# Mitochondrial Membrane potential (ΔΨ) was monitored spectrofluorimetrically using 10 μM safranin-o as a probe in a F-4500 spectrofluorometer (Hitachi) with the 495/586 nm excitation/emission wavelength pair. The mitochondria (1.0 mg protein·mL^−1) were incubated at 30°C in 2 mL of the standard reaction medium containing 125 mM sucrose, 65 mM KCl, and 10 mM HEPES-KOH, and CCCP (carbonyl cyanide 3-chlorophenylhydrazone) was added at the end of each experiment for the complete dissipation of the membrane potential.
# rat liver mitochondria [8] = assay: Mitochondrial swelling (apparent absorbance at 540 nm); details: 1 μM
# Protocol: as §2
# Mitochondrial swelling was estimated from the decrease in apparent absorbance at 540 nm performed with a Model DU-70 spectrophotometer (Beckman). The mitochondria were incubated using 30°C in 2 mL of the standard reaction medium.
# rat liver mitochondria [9] = assay: Mitochondrial ROS production (H2DCFDA); details: 1 μM
# Protocol: as §2
# Mitochondrial reactive oxygen species (ROS) production was monitored spectrofluorimetrically with 2′,7′-dichlorodihydrofluorescein diacetate (H2DCFDA) with the 503/529 nm excitation/emission wavelength pair, both using the standard reaction medium.
# [10] = Biomimetic oxidation of monensin A catalysed by Jacobsen catalyst (CYP450 model), HPLC-ESI-MS; type: in vitro ADME; details: catalyst:oxidant:monensin A 1:20:20, CH2Cl2, room temperature, 24 h
# Protocol: Based on the previous studies by this laboratory, the oxidation reactions were performed in an Eppendorf tube (2 mL), under mechanical stirring (Vibrax VXR agitator) at room temperature for 24 h. The ideal molar ratio obtained for the reaction was 1 : 20 : 20 (for catalyst : oxidant : monensin A). This was achieved by adding 0.3 mmol·L^-1 : 6 mmol·L^-1 : 6 mmol·L^−1 in the 0.5 mL of reaction medium (CH2Cl2). The oxidants were m-CPBA, PhIO, t-BOOH, and H2O2. The products from monensin A oxidation were analyzed by HPLC-ESI-MS. Control reactions were carried out in the absence of catalyst under the same conditions as the catalytic runs and no products were detected.
# LC-ESI-MS analyses were performed on a Varian LC-MS 1200L triple quadrupole apparatus coupled to a mass spectrometer with ESI ionization in the positive mode (Varian Medical Systems Inc., Palo Alto, CA). The chromatographic analysis was performed using an injection volume of 10 μL, sample concentration 50 μg·mL^−1 in an Xterra analytical column MS C-18 (150 × 2.1 mm, 5 μm) (Waters) and following gradient (MeOH : H2O): 0.1 min 70% MeOH, 20.0 min 98% MeOH, 21.0 min 30% MeOH, and 30.0 min 70% MeOH. The MS conditions were capillary voltage 3.2 kV, cone voltage 40 V, source temperature 40°C, and N2 desolvation temperature 350°C. The percentage of monensin A oxidation was determined by using a calibration curve of 10–100 μg·mL^−1. The resulting mass spectra were monitored over a m/z range of 610 to 800.
# S. aureus ATCC 25923 = test system: S. aureus ATCC 25923; design: method as in PMID 23509771; details: cited from earlier work
# [11] = test system: S. epidermidis ATCC 12228; design: method as in PMID 23509771; details: cited from earlier work
# [12] = test system: S. epidermidis ATCC 35984; design: method as in PMID 23509771; details: cited from earlier work
# Bacillus subtilis = test system: Bacillus subtilis; design: method as in PMID 17702333; details: bioautography against Bacillus subtilis; cited from earlier work
# Streptococcus faecalis = test system: Streptococcus faecalis; design: method as in PMID 17702333; details: turbidimetric assay against Streptococcus faecalis; cited from earlier work
# [13] = ATCC25922, E. coli ATCC 25922, read-out: Minimal bactericidal concentration
# [14] = ATCC27853, P. aeruginosa ATCC 27853, read-out: Minimal bactericidal concentration
# [15] = ATCC25923, S. aureus ATCC 25923, read-out: Minimal bactericidal concentration
# [16] = ATCC14990, S. epidermidis ATCC 14990, read-out: Minimal bactericidal concentration
# [17] = isolated rat liver mitochondria 1.0 mg protein·mL−1
SMILES,"MBC [1, 13] [µg/mL]","MBC [2, 14] [µg/mL]","MBC [3, 15] [µg/mL]",MBC ([4]; S. aureus ATCC 43300 (MRSA)) [µg/mL],"MBC [5, 16] [µg/mL]",effect on mitochondrial respiratory parameters (in words) (rat liver mitochondria [6]),ADP/O (phosphorylation efficiency) (rat liver mitochondria [6]; [17]),RCR (respiratory control ratio) (rat liver mitochondria [6]; [17]),V3 (state 3 respiration rate) (rat liver mitochondria [6]; [17]),V4 (state 4 respiration rate) (rat liver mitochondria [6]; [17]),effect on mitochondrial membrane potential (in words) (rat liver mitochondria [7]),effect on mitochondrial swelling (in words) (rat liver mitochondria [8]),effect on mitochondrial ROS accumulation (in words) (rat liver mitochondria [9]),Minimal bactericidal concentration ([3]; S. aureus ATCC 25923) [µg/mL],Minimal bactericidal concentration ([4]; S. aureus ATCC 43300 (MRSA)) [µg/mL],other results
"O=C(N[C@H](CO)[C@H](O)c1ccc([N+](=O)[O-])cc1)C(Cl)Cl [Chloramphenicol, chloramphenicol, reference compound]",3.1,100,6.3,8.3,6.3,–,–,–,–,–,–,–,–,–,–,–
CC[C@@]1([C@@H]2O[C@@H]([C@H]3O[C@@](O)(CO)[C@H](C)C[C@@H]3C)C[C@@H]2C)CC[C@H]([C@]2(C)CC[C@]3(C[C@H](O)[C@@H](C)[C@@H]([C@@H](C)[C@@H](OC)[C@H](C)C(=O)O)O3)O2)O1 [Monensin A],> 100,> 100,3.1,6.3,25,–,–,–,–,–,–,–,–,–,–,"ADP/O (phosphorylation efficiency) (rat liver mitochondria [6]; rat, pH 7.2): 1.498 ± 0.01^b; RCR (respiratory control ratio) (rat liver mitochondria [6]; rat, pH 7.2): 4.548 ± 0.16^b; V3 (state 3 respiration rate) (rat liver mitochondria [6]; rat, pH 7.2): 64.097 ± 2.35^a nmol O2/mg protein/min; V4 (state 4 respiration rate) (rat liver mitochondria [6]; rat, pH 7.2): 14.12 ± 0.97^b nmol O2/mg protein/min; decrease of respiratory control ratio (RCR) (rat liver mitochondria [6]; rat, pH 7.2): 32.59%; increase of state 4 of oxygen consumption (rat liver mitochondria [6]; rat, pH 7.2): 44.11%; reduction in ADP/O (rat liver mitochondria [6]; rat, pH 7.2): 47.73%; decrease on the mitochondrial membrane potential (rat liver mitochondria [7]; rat): 23.29%; mitochondrial swelling, effect on the apparent turbidity (rat liver mitochondria [8]; rat): 54.61%; increase in accumulation of free radicals (ROS) (rat liver mitochondria [9]; rat): 12.14%; monensin conversion ([10]; oxidant H2O2): 26%; monensin conversion ([10]; oxidant PhIO): 36%; monensin conversion ([10]; oxidant m-CPBA): 27%; monensin conversion ([10]; oxidant t-BOOH): 14%; antimicrobial activity concentration (S. aureus ATCC 25923): 2.9 µg/mL; antimicrobial activity concentration [11]: 2.9 µg/mL; antimicrobial activity concentration [12]: 5.8 µg/mL"
"CCC1(C2OC(C3OC(O)(CO)C(C)CC3C)CC2C)CCC(C2(C)CCC3(CC(O)C(C)C(C(C)C(O)C(C)C(=O)O)O3)O2)O1 (centres unmarked) [Product 1, 3-O-demethyl monensin A]",–,–,–,–,–,none of these detrimental effects,2.757 ± 0.09^a,6.623 ± 0.27^a,66.363 ± 2.29^a nmol O2/mg protein/min,10.02 ± 0.11^a nmol O2/mg protein/min,no effect,no effect,no effect,25.0,50.0,"MBC ([1]; ATCC25922, read-out: Minimal bactericidal concentration): > 100 µg/mL; MBC ([2]; ATCC27853, read-out: Minimal bactericidal concentration): > 100 µg/mL; MBC ([3]; ATCC25923, read-out: Minimal bactericidal concentration): 25 µg/mL; MBC [4]: 50 µg/mL; MBC ([5]; ATCC14990, read-out: Minimal bactericidal concentration): > 100 µg/mL; antimicrobial activity relative to monensin (Bacillus subtilis): 5%; antimicrobial activity relative to monensin (Streptococcus faecalis): 5%"
"CCC1(C2OC(C3OC(O)(CO)C(C)C(O)C3C)CC2C)CCC(C2(C)CCC3(CC(O)C(C)C(C(C)C(OC)C(C)C(=O)O)O3)O2)O1 (centres unmarked) [Product 2, 12-hydroxy monensin A]",> 100,> 100,> 100,> 100,> 100,none of these detrimental effects,2.728 ± 0.06^a,6.786 ± 0.15^a,66.730 ± 1.95^a nmol O2/mg protein/min,9.832 ± 0.07^a nmol O2/mg protein/min,no effect,no effect,no effect,> 100,> 100,–
